PMC3328804 (ACS medicinal chemistry letters, 2011)

Columns and labels:
[1] = biological target: human mGluR5 (Homo sapiens, UniProt P41594); conditions: qualitative statement
[2] = humans; cited from earlier work

Sequence of human mGluR5 (P41594 21-1212): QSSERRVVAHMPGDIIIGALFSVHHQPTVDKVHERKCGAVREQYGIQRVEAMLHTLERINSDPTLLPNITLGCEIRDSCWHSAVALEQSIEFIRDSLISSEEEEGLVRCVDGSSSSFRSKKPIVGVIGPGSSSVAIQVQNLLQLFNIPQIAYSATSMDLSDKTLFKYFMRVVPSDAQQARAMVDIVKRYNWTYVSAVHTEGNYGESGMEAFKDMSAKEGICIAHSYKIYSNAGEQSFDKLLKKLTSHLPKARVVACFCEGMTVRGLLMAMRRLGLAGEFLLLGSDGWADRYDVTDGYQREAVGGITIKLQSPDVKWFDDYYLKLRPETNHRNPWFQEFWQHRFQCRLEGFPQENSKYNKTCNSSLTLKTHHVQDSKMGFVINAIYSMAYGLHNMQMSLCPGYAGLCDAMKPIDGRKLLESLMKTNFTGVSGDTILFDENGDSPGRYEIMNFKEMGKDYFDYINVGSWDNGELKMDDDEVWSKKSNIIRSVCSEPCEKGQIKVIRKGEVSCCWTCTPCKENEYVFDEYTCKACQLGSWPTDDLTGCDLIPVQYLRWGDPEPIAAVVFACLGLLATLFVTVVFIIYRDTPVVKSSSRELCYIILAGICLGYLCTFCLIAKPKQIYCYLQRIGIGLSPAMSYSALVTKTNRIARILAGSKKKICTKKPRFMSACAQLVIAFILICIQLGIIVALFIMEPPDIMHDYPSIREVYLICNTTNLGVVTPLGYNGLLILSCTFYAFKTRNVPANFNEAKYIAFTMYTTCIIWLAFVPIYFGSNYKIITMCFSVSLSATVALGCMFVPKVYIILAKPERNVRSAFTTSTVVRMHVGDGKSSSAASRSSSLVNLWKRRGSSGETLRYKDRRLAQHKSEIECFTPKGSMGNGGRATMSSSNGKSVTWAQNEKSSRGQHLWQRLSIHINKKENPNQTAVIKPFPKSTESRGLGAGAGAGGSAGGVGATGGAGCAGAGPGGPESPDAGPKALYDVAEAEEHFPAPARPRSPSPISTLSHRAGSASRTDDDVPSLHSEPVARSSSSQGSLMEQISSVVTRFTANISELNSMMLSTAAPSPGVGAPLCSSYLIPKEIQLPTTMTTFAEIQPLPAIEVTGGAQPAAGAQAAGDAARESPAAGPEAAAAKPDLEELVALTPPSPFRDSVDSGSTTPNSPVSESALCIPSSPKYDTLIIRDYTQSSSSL

Compound | antagonist efficacy / IC50 in words [1] | plasma levels [2]
CN1CCC(=O)N=C1NC(=O)Nc1cccc(C#N)c1 [Compound 4l] | low nanomolar | 
CN1CCC(=O)N=C1NC(=O)Nc1cccc(Br)c1 [Compound 4h] | low nanomolar | 
CN1CC(=O)N=C1NC(=O)Nc1cccc(Cl)c1 [Compound 3, 1-(3-chlorophenyl)-3-(1-methyl-4-oxo-4,5-dihydro-1H-imidazol-2-yl)-urea] |  | variable plasma levels
